Measurements: US20050170019A1, “Methods, compositions and devices for inducing stasis in cells” (Fred Hutchinson Cancer Research Center, priority 2003, published 2005)
Where two headings read alike, the source gives them in different places.

What was measured:
[1] = system: C. elegans embryos; assay: Viability of nematodes in carbon monoxide based atmospheres; format: in vivo; conditions: for viability (survival) to adulthood: 0.25 kPa O2/CO
Source text: To achieve specific atmospheric conditions the following apparatus was used: a glass syringe barrel having a tip with a locking device such as a LUER-LOK with the large opening of the barrel sealed with a custom-machined steel and rubber fitting to make an airtight seal was locked to via locking device to the inlet port of an environmental chamber having an inlet and an outlet port each fitted with a locking devices such as a LUER-LOK fitting. A defined gas was humidified and provided to the environmental chamber by first venting the gas from a compressed tank (Byrne Specialty Gas, Seattle, Wash.) through a gas washing bottle (500 ml Kimex) filled with double distilled water. The gas washing bottle was connected to the environmental chamber past a gas-flow meter. A gas flow meter was used to provide a regulated 70 cc/min flow through the environmental chamber throughout the 24 hr incubation.
(§1) To test whether induced, reversible stasis could be achieved in C. elegans nematodes, 2-cell C. elegans embryos, L3 larvae or adult nematodes were collected and exposed to either an environment of effectively 100% CO, an environment of 100% N2, an environment comprising 500 ppm oxygen balanced with carbon monoxide, or to environments comprising 100, 500 or 1000 ppm oxygen balanced with nitrogen at room temperature. Nematodes were visualized using differential interference contrast microscopy (also known as Nomarski optics). Images were collected and analyzed using NIH image and Adobe Photoshop 5.5. Embryos are approximately 50 μm in length.
Environmental chambers and apparatuses. Oxygen deprivation experiments were carried out using a custom atmospheric chamber designed by W. Van Voorhies (Van Voorhies et al., 2000). The chamber is a 30 mL glass syringe (Fisher #14-825-10B) fitted with a custom steel stopper that is lined with two viton o-rings to ensure a tight seal. The stopper is bored through and has a steel lure lock on the exterior face so that a hose carrying compressed gas can be attached. A defined gas mixture is delivered to the chamber at a constant pressure and flow rate from compressed tanks by passing first through a rotometer (Aalborg, flow-tube number 032-41ST) or mass flow controller (Sierra Instruments #810) to monitor flow rate and then through a 500 ml gas washing bottle (Fisher #K28220-5001) containing 250 ml water to hydrate the gas. ¼” OD nylon (Cole-Parmer #P-06489-06) or FEP (Cole-Parmer #A-06450-05) tubing was used and connections between tubing and the regulators and between the tubing and the rotometers were made with brass John-Guest-type fittings (Byrne Gas). All other connections were made with either microflow quick-connect fittings (Cole-Parmer #A-06363-57, #A-06363-52) or standard lure fittings (Cole-Parmer #A-06359-37, #A-06359-17).
Viability of nematodes in hypoxia. […] Log-phase, adult C. elegans were picked into a drop of sterile water containing 100 μg/ml ampicillin, 15 μg/ml tetracycline and 200 μg/ml streptomycin on a glass plate. Adults were chopped with a razor blade and 2-cell embryos were picked using a mouth pipet. 30-60 2-cell embryos were transferred to a small glass boat (custom made to fit atmospheric chambers, Avalon Glass Works, Seattle Wash.) filled with 3 ml of 1% agarose in M9. Boats were then placed into a humid chamber for 2 hours to allow the embryos to age and then placed into the environmental chamber. The environmental chambers were continuously perfused at room temperature with either pure N2 (grade 4.5), 100 ppm O2/N2, 500 ppm O2/N2, 1000 ppm O2/N2, or 5000 ppm O2/N2 at 70 cc/min for 24 hrs. Following exposure, agarose chunks containing the embryos were cut out of the boat and placed with embryos facing up onto a medium-sized NGM plate seeded with E. coli (OP50). Embryos were scored for hatching 24 hours after exposure and hatched L1's were transferred to the surface of the NGM plate and followed to adulthood. Animals that could not be accounted for were dropped from the total. […]

[2] = system: C. elegans embryos; assay: Cell biological analysis: arrest of embryogenesis (suspended animation) in carbon monoxide-based atmospheres; format: in vivo
Source text: as §1
Cell biological analysis. To determine the extent of developmental progression in nitrogen-based atmospheres (Table 2), 2-cell embryos were exposed to various degrees of hypoxia as described above and were either immediately photographed, or photographed following a 12 hr recovery period in a humid chamber. To determine whether embryos arrested in carbon monoxide-based atmospheres, 2-cell embryos were aged in room air for two hours and were either photographed immediately or put into 100% carbon monoxide or 0.05 kPa O2/CO for 24 hours and photographed immediately following the exposure. In all cases, DIC microscopy was done by placing embryos under a cover slip on a thin 1% agarose pad and viewing on a Zeiss axioscope. Photographs were taken using RS Image and Adobe Photoshop software.

[3] = system: human keratinocytes; assay: Preservation of human skin in carbon monoxide: keratinocyte growth and colony formation; format: cell-based
Method: Three human foreskins were obtained for this purpose. The foreskin tissue was preserved in keratinocyte growth medium (KGM) containing insulin, EGF (0.1 ng/ml), hydrocortisone ([…]) and bovine pituitary extract (approx. 50 micrograms/ml of protein). Foreskins were rinsed in PBS, and excess fatty tissue was removed. Each foreskin sample was divided into 2 equal pieces. Each piece was placed into a separate container containing a solution of PBS with 24 mg/ml of Dispase II (from Bacillus Polymyxa EC 3.4.24.4:Roche Diagnostics Corp., Indianapolis, Ind.). One container (containing a foreskin piece in PBS with Dispase II) was kept in a humid chamber in a fume hood. The other container (with the other half of the foreskin in PBS with Dispase II) was placed in the same fume hood in an environmental chamber perfused with humidified 100% CO. Both samples were maintained at room temperature for 24 hrs. Methods used to establish defined atmospheric conditions were identical to those used in Example 1.
Following the 24 hr exposure to normoxia or 100% CO, keratinocytes were isolated from the foreskins according to the method described by Boyce et al. (1983; 1985; each of which is incorporated herein by reference in its entirety). Briefly, the epidermis from each foreskin sample was removed to a fresh dish containing PBS. The epidermis was minced and homogenized prior to incubation in 3 ml of 0.05% Trypsin, 1 mM EDTA for 5 minutes, at room temperature, to separate basal cells from the epidermis. After incubation, 6 ml of 400 μg/ml (micrograms per ml) Soybean Trypsin Inhibitor, 1 mg/ml BSA was added and the samples were centrifuged at 900 RPM. The supernatant from each sample was discarded and the sample pellets were resuspended in 10 ml of KGM. Each sample was split into two 10 cm plates each of which contained 5 ml KGM and 100 μl of HEPES pH 7.3 (N-2-hydroxyethylpiperazine-N′-2-ethane sulfonic acid). The plates were incubated in a 37° C. incubator perfused with 95% room air, 5% carbon dioxide for five days.
Cells were inspected visually using an inverted phase contrast microscope. […] Quantitation of the number of viable keratinocytes as judged by colony formation was quantified for two of the three foreskins.

[4] = system: humans; conditions: cited from earlier work

Structure (SMILES): [C-]#[O+] [carbon monoxide]
- viability (survival) to adulthood ([1]; N2 (wild-type) embryos, 24 hrs): 78.7%
- viability (survival) to adulthood ([1]; N2 (wild-type) embryos, 24 hrs, listed as CO): 78.7% ± 21.9
- viability to adulthood ([1]; embryos, 0.05 kPa O2 balanced with carbon monoxide, 24 hours): 96.2%
- survival to adulthood ([1]; embryos, 101 kPa CO (100% CO), 24 hrs): 81.5%
- viability (survival) to adulthood ([1]; hif-1(ia04) embryos, 24 hrs): 84.0%
- viability (survival) to adulthood ([1]; hif-1(ia04) embryos, 24 hrs, listed as CO): 83.9% ± 13.8
- lethality ([1]; nematodes, 100% carbon monoxide, room temperature, 24 hr): not lethal
- suspended animation and survival ([1]; nematodes, 500 ppm oxygen balanced with carbon monoxide): entered into suspended animation and survived
- protection against hypoxia (FIG. 3) ([1]; wild-type embryos, 24 hours, 0.05 kPa O2/CO versus 0.05 kPa O2/N2): protects against hypoxia
- embryogenesis during exposure ([2]; embryos, 0.05 kPa O2 balanced with carbon monoxide): arrested embryogenesis
- progression through embryogenesis during exposure ([2]; embryos, 101 kPa CO): did not progress through embryogenesis
- induction of suspended animation ([2]; nematodes, 100% carbon monoxide): induced reversible suspended animation
- suspended animation ([2]; wild-type and hif-1(ia04) embryos, 0.25 kPa O2 balanced with carbon monoxide): entered into suspended animation
- Total colonies ([3]; Foreskin 1, 100% CO 24 hrs): 542 colonies (many of which were very
- Total colonies ([3]; Foreskin 2, 100% CO 24 hrs): 780 colonies (many of which were very
- survival of human keratinocytes (FIG. 1) ([3]; exposure to 100% CO): survive
- survival of skin cells in CO relative to room air ([3]; human skin, 100% CO, after 24 hrs): 100 fold
- growth of keratinocyte populations (visual inspection) ([3]; three foreskins, 24 hr 100% CO at room temperature, then five days culture): significant growth
- symptoms ([4]; 50 parts per million (ppm)): no symptoms
- symptoms ([4]; 200 ppm, within two-three hours): slight headache
- symptoms ([4]; 400 ppm, within one to two hours): frontal headache
- symptoms ([4]; 800 ppm): dizziness, nausea, and/or convulsions within 45 minutes, and render the subject insensible within two hours
- lethality ([4]; around 1000 ppm, exposure for more than around 1-2 minutes, an organism): can expire
